Test results reported in patent US20250144081A1, “METHODS FOR REDUCING ALCOHOL, DRUG, AND FOOD INTAKE” (The Scripps Research Institute, priority 2022, published 2025).
“Also recorded” adds a separate entry of the source. Each block holds one compound with its values, some of them ahead of it.

How the values were obtained:
[1] = tested on: C57BL/6J mice; test: drinking in the dark (DID) binge drinking paradigm, alcohol intake; assay type: in vivo, mouse; conditions: for alcohol consumption in the DID paradigm over a 4 h drinking session: first 2 h and 4 h
Experimental: The S1P agonists fingolimod (1, 2, and 4 mg/kg), ozanimod (0.25, 0.5, and 1 mg/kg) and CYM-5442 (1.25, 2.5, and 5 mg/kg) (Tocris, Minneapolis, MN, USA) were suspended in saline with 1% (w/v) Tween 80 and administered intraperitoneally (i.p.) (injection volume in mice 10 ml/kg, in rats 2 ml/kg). Pretreatment time was 30 min for fingolimod and ozanimod, while CYM-5442 was injected 60 min before each behavioral experiment.
Acute effect of the S1P agonists was tested in alcohol binge-like drinking in male and female C57BL/6J mice exposed to the drinking in the dark paradigm. As described by Rhodes and colleagues (Rhodes et al. Physiol Behav 84:53-63, 2005; Thiele et al. Alcohol 48:235-41, 2014) 3 h after lights go off, the water bottle of single-housed mice was replaced with a bottle containing 20% (v/v) alcohol and left in place for 2 h, over three consecutive days during which mice stabilized alcohol drinking. […] Over the experiment, the amount of alcohol consumed by mice was measured by weighing (0.01 g accuracy) the bottle immediately before and after each drinking session. Alcohol consumption was expressed as grams of pure alcohol per kilogram of body weight (g/kg). In addition, at the end of the second 2 h drinking session, blood samples were collected from the tip of the tail of each mouse and BALs were measured.

[2] = in words only; cited from earlier work
[3] = tested on: Wistar rats; test: intravenous methamphetamine self-administration (FR1 and progressive ratio); assay type: in vivo, rat; conditions: CYM-5442 5 mg/kg i.p., male Wistar rats, vs vehicle
Experimental: The effect of CYM-5442 was tested on methamphetamine self-administering rats. Male Wistar rats were aseptically implanted with chronic silastic catheters in the right jugular vein and were trained to self-administer methamphetamine (1 h/day at a dose of 0.05 mg/kg/infusion). Rats were trained to self-administer methamphetamine under a fixed-ratio 1 schedule of reinforcement (FR1) whereby one lever press results in the delivery of one methamphetamine infusion (0.05 mg/kg) under 1-h daily sessions.
Male Wistar rats were aseptically implanted with intravenous catheters in the right jugular vein under deep isoflurane anesthesia as previously described in Ahmed et al. (Proc Natl Acad Sci USA 102:11533-8). At the time of testing, the rats' body weights ranged between 350 and 400 g.
Self-administration was performed in operant conditioning chambers (Med Associates, St. Albans, VT, USA) that were enclosed in lit, sound-attenuating, ventilated environmental cubicles. Methamphetamine was delivered through plastic catheter tubing that was connected to an infusion pump. The infusion pump was activated by responses on the right (active) lever. […] A computer controlled fluid delivery and behavioral data recording. All of the rats were tested for methamphetamine self-administration on a continuous reinforcement (fixed ratio 1, FR1) schedule. […] A 20-s timeout (TO) period followed each METH infusion. […]

[4] = tested on: C57BL/6J mice; test: chronic treatment of LFD- or HFD-fed mice: body weight, food and water intake; assay type: in vivo, mouse
Experimental: (§1) The effect of chronic daily administration of CYM-5442 on body weight and body fat content was tested in mice fed either a low-fat diet (LFD; D12450K, 10 kcal % Fat, Research Diets, Inc. NJ, US) or a high-fat diet (HFD; D07011903, 45 kcal % Fat) ad libitum. Mice were treated with CYM-5442 (2.5 mg/kg, i.p.) or vehicle 5 days a week over 7 consecutive weeks. […] This is consistent with the moderate half-life of the drug that allows adlibitum fed mice to eat through the day. This finding supports that the metabolic effect of CYM-5442 of increased fat utilization or lipolysis is independent of reduction of food intake.

[5] = tested on: C57BL/6J mice; test: acute food intake in 4 h sessions (CLAMS); assay type: in vivo, mouse; conditions: vs 0 mg/kg
Experimental: The acute effect of CYM-5442 on food intake was measured in 4 h sessions. CYM-5442 was administered 1 h before the sessions. CYM-5442 reduced food intake in a dose-dependent manner at the doses of 2.5 and 5 mg/Kg in the first 2 h (FIG. 7A) and at the dose of 5 mg/kg after 4 h (FIG. 7B).
(§2) Effect of CYM-5442 was evaluated on food (g) and water intake (ml) and respiratory exchange ratio (RER: VCO2/VO2) of male C57BL/6J mice (n=30) allocated into CLAMS (Comprehensive Lab Animal Monitoring System, Columbus Instruments, Columbus, OH USA) chambers. After 1-week acclimatization, on test day, mice were removed from the metabolic chambers, injected with CYM-5442 60 min before 3 h into the dark of the light/dark cycle and then placed back into the chambers. Food, water intake and RER were monitored starting the 1st to the 12th h of the dark phase of the light/dark cycle.

[6] = tested on: C57BL/6J mice; test: body composition by quantitative nuclear magnetic resonance (qNMR) after chronic treatment; assay type: in vivo, mouse; conditions: chronic CYM-5442 2.5 mg/kg i.p.
Experimental: as §1
Body composition was determined with a quantitative nuclear magnetic resonance instrument (qNMR, Echo MRI, Houston, TX).

[7] = tested on: Wistar rats; test: rotarod test, motor coordination, rats; assay type: in vivo, rat; conditions: CYM-5442 5 mg/kg; male Wistar rats
Experimental: (§3) Effect of CYM-5442 on motor coordination was evaluated in male and female C57NBL/6J mice and male Wistar rats in the rotarod apparatus (Rotamex-5, Columbus Instruments, USA). Briefly, one week before testing, animals were extensively habituated to handling and intraperitoneal injections. On test day, animals were weighed and allocated into the four experimental groups. CYM-5442 or vehicle were injected intraperitoneally 60 min before the start of the first trial. Each subject underwent 3 trials of 300 s (intertrial interval 60 s) with a rotarod acceleration from 4 to 40 rpm. Trials in which animals fell before 5 s, calculated from the beginning of the trial, were repeated. For each animal, the latency to fall was assessed and expressed as the average values over the 3 trials.

[8] = tested on: C57BL/6J mice; test: respiratory exchange ratio (RER) by indirect calorimetry (CLAMS); assay type: in vivo, mouse
Experimental: The effect of CYM-5442 on energy metabolism was tested by indirect calorimetry with the Comprehensive Lab Animal Monitoring System (CLAMS; Columbus Instruments, Columbus, OH USA). After 1-week acclimatization, on test day, mice were removed from metabolic chambers, injected with CYM-5442 3 h into the dark phase of the light/dark cycle and then placed back into chambers. […] The RER indicates the energy source the organism uses over the day. It is typically measured on a scale from 0.7 to 1.
as §2

[9] = tested on: C57BL/6J mice; test: loss of righting reflex (LORR), sensitivity to alcohol's hypnotic action; assay type: in vivo, mouse
[10] = tested on: C57BL/6J mice; test: rotarod test, motor coordination, mice; assay type: in vivo, mouse; conditions: CYM-5442; male C57BL/6J mice
Experimental: as §3

[11] = tested on: C57BL/6J mice; test: saccharin consumption in the DID paradigm; assay type: in vivo, mouse; conditions: CYM-5442 5 mg/kg i.p., male C57BL/6J mice, first 2 h and 4 h
Excerpt: An identical experimental plan was adopted to evaluate acute effects of CYM-5442 on the no-drugs reinforcer saccharin (0.002% w/v). Independent groups of C57BL/6J mice were used for testing the effect of CYM-5442 on saccharin intake.

[12] = tested on: MeCP2^308/Y mice; test: DID paradigm in low drinking MeCP2^308/Y mice, alcohol intake and BALs; assay type: in vivo, mouse; conditions: PF-543 10 mg/kg i.p., 30 min before the drinking session
[13] = body weight (fingolimod); conditions: in vivo
[14] = tested on: mice with degenerative and inflammatory conditions; conditions: cited from earlier work
[15] = rotarod test, motor impairment by S1P receptor agonists (fingolimod); conditions: in vivo
[16] = CYM-5442 2.5 mg/kg i.p. chronic, HFD-fed or LFD-fed mice, vs vehicle

- lean body mass [6]: without affecting
Structure (SMILES): CCOc1ccc(-c2nc(-c3cccc4c3CCC4NCCO)no2)cc1OCC (centres unmarked) [CYM-5442]
- alcohol consumption in the DID paradigm over a 4 h drinking session ([1]; CYM-5442 2.5, 5 mg/kg i.p., male C57BL/6J mice): reduces
- half-life (circulating) [2]: longer; also recorded: moderate
- lever-responding for methamphetamine, fixed-ratio 1 (FR1), 1-h self-administration session ([3]; acute): significantly reduced
- methamphetamine self-administration under progressive ratio (PR) schedule, break point [3]: significantly reduced; also recorded: lower
- overall daily (24 h) food intake [4, 16]: did not differ
- overall daily (24 h) water intake [4, 16]: did not differ
- body weight gain in HFD-fed mice ([4]; CYM-5442 2.5 mg/kg i.p. daily, 5 days a week over 7 weeks, vs vehicle-treated HFD-fed mice): effectively prevented
- food-intake during the 1st 2-hrs ([5]; CYM-5442 2.5 mg/kg and 5 mg/kg): significantly reduced
- food-intake over the entire 4-hrs session ([5]; CYM-5442 5 mg/kg): reduced
- body fat in the low-fat diet (LFD)-fed control group (reduction) [6]: not
- body fat in the HFD-fed group ([6]; vs vehicle in HFD, 2.5 mg/kg): significantly reduced
- motor coordination in the rotarod apparatus [7]: did not affect
- Respiratory Exchange Ratio (RER), time course ([8]; CYM-5442 i.p. 1.25, 2.5, 5 mg/kg, for 1-3 hours, dose-dependent): significantly lower; also recorded: significantly reduced
- RER, average of 2 hours, first 2 hrs measure point (1-3 hrs after injection) ([8]; CYM-5442 i.p., 0 mg/kg vs 5 mg/kg): significantly reduced
- duration of loss of righting reflex (LORR) ([9]; CYM-5442 2.5 mg/kg i.p., alcohol 3.5 g/kg, male C57BL/6J mice): significantly increases
- motor coordination performance in the rotarod apparatus (latency to fall, active run time) [10]: did not affect; also recorded: does not alter
- saccharin [0.002% (w/v)] consumption in the DID paradigm over a 4 h drinking session [11]: reduces

Structure (SMILES): Cc1cc(CS(=O)(=O)c2ccccc2)cc(OCc2ccc(CN3CCC[C@@H]3CO)cc2)c1 [PF-543]
- alcohol consumption of MeCP2^308/Y mice in the DID paradigm [12]: increased

Structure (SMILES): CCCCCCCCc1ccc(CCC(N)(CO)CO)cc1 [fingolimod]
- alcohol consumption in the DID paradigm over a 4 h drinking session ([1]; fingolimod 4 mg/kg i.p., C57BL/6J mice): reduced
- half-life (circulating) [2]: longer
- body weight [13]: did not affect
- motor deficits [14]: ameliorated
- motor impairment, performance in the rotarod test [15]: did not impair

Structure (SMILES): CC(C)Oc1ccc(-c2nc(-c3cccc4c3CC[C@@H]4NCCO)no2)cc1C#N [ozanimod, Ozanimod (RPC1063)]
- alcohol consumption at the end of the 4-h drinking session (reducing effect) ([1]; ozanimod 0.25-1 mg/kg i.p., C57BL/6J mice, 4 h, p>0.05): not evident
- alcohol consumption in the DID paradigm after 2 h ([1]; ozanimod 0.25-1 mg/kg i.p., C57BL/6J mice, first 2 h, p<0.05): reduced
- half-life (circulating) [2]: short
- motor deficits [14]: ameliorated
- duration of loss of righting reflex (LORR) ([9]; ozanimod 0.1 and 0.3 mg/kg i.p., C57BL/6J mice): significantly increased
